Test results: US8778919B2, “Cyclic anilino—pyridinotriazines” (Janssen Pharmaceutica NV, priority 2005, dated 2014)

Experiments:
Format in all cases: biochemical
[1] = target: GSK-3β (Homo sapiens, UniProt P49841); assay: GSK-3 kinase assay (C1), GSK-3β; conditions: 1 μM ATP; for IC50: read-out: C1 Score β
Experimental: (§1) In vitro GSK-3 assays were performed at room temperature in a 100 μl reaction volume of 25 mM Tris (pH 7.4) containing 10 mM MgCl2.6H2O, 1 mM DTT, 0.1 mg/ml BSA, 5% glycerol, 5.7 ng/μl GSK-3β or 0.25 ng/μl GSK-3α, 5 μM biotinylated CREB peptide, 1 μM ATP, 0.85 μCi/ml ^33P-ATP and a suitable amount of a test compound. After one hour, the reaction was terminated by adding 70 μl of Stop mix (0.1 mM ATP, 5 mg/ml streptavidin coated PVT SPA beads, pH 11.0). The beads were allowed to settle overnight and the radioactivity attached to the beads was counted in a microtiter plate scintillation counter and compared with the results obtained in a control experiment (without the presence of a test compound) in order to determine the percentage of GSK-3 inhibition. The IC50 value, i.e. the concentration (M) of the test compound at which 50% of GSK-3 is inhibited, was calculated from the dose response curve obtained by performing the above-described GSK-3 assay in the presence of different amounts of the test compound. Score 1=pIC50 value<6, Score 2=pIC50 value from 6-7, Score 3=pIC50 value from 7-8, Score 4=pIC50 value>8.

[2] = target: CDK5/p35 human (Homo sapiens, UniProt Q00535); assay: Kinase profiling C3.6 CDK5/p35 human; conditions: CDK5/p35, test concentration of 10^−6 M
Experimental: (§2) The in vitro inhibition of a panel of kinases was assessed using either the glass-fiber filter technology as described by Davies, S. P. et al., Biochem J. (2000), 351; p. 95-105. In the glass-fiber filter technology the activity of the kinase of interest is measured using an appropriate substrate that is incubated with the aforementioned kinase protein in the presence of (^33P) radiolabeled ATP. (^33P) Phosporylation of the substrate is subsequently measured as radioactivity bound on a glassfiber-filter.
(§3) All kinases are pre-diluted to a 10× working concentration prior to addition into the assay. The composition of the dilution buffer for each kinase is detailed below.
(§4) All substrates are dissolved and diluted to working stocks in de-ionised water, apart from histone H1 that is stored in 10× working stock in 20 mM MOPS pH 7.4.
(§5) In a final reaction volume of 25 μl, CDK5/p35 human (5-10 mU) is incubated with 8 mM MOPS pH 7.0, 0.2 mM EDTA, 0.1 mg/ml histone H1, 10 mM MgAcetate and [γ-^33P-ATP] (specific activity approx. 500 cpm/pmol, concentration as required). The reaction is initiated by the addition of the MgATP mix. After incubation for 40 minutes at room temperature, the reaction is stopped by the addition of 5 μl of a 3% phosphoric acid solution. 10 μl of the reaction is then spotted onto a P30 filtermat and washed three times for 5 minutes in 75 mM phosphoric acid and once in methanol prior to drying and scintillation counting.

[3] = target: CDK3/cyclinE (h) (Homo sapiens, UniProt Q00526); assay: Kinase profiling C3.5 CDK3/cyclinE human; conditions: test concentration of 10^−6 M
Experimental: as §2, §3, §4
as §5, with “CDK3/cyclinE (h)” for “CDK5/p35 human”

[4] = target: CDK2/cyclinA (h) (Homo sapiens, UniProt P24941); assay: Kinase profiling C3.3 CDK2/cyclinA human; conditions: test concentration of 10^−6 M
Experimental: as §2, §3, §4
as §5, with “CDK2/cyclinA (h)” for “CDK5/p35 human”

[5] = target: CDK7/cyclinH/MAT1 (h) (Homo sapiens, UniProt P50613); assay: Kinase profiling C3.8 CDK7/cyclinH/MAT1 human; conditions: CDK7/cyclinH/MAT1, test concentration of 10^−6 M
Experimental: as §2, §3, §4
as §5, with “CDK7/cyclinH/MAT1 (h)” for “CDK5/p35 human”, “500 μM peptide,” for “0.1 mg/ml histone H1,”

[6] = target: CDK2/cyclinE (h) (Homo sapiens, UniProt P24941); assay: Kinase profiling C3.4 CDK2/cyclinE human; conditions: test concentration of 10^−6 M
Experimental: as §2, §3, §4
as §5, with “CDK2/cyclinE (h)” for “CDK5/p35 human”

[7] = target: CDK6/cyclinD3 human (Homo sapiens, UniProt Q00534); assay: Kinase profiling C3.7 CDK6/cyclinD3 human; conditions: CDK6/cyclinD3, test concentration of 10^−6 M
Experimental: as §2, §3, §4
as §5, with “CDK6/cyclinD3” for “CDK5/p35”

[8] = target: CDK1/cyclinB (h) (Homo sapiens, UniProt P06493); assay: Kinase profiling C3.2 CDK1/cyclinB human; conditions: test concentration of 10^−6 M
Experimental: as §2, §3, §4
as §5, with “CDK1/cyclinB (h)” for “CDK5/p35 human”

[9] = target: GSK-3α (Homo sapiens, UniProt P49840); assay: GSK-3 kinase assay (C1), GSK-3α; conditions: 1 μM ATP, read-out: C1 Score α
Experimental: as §1

CDK7/cyclinH/MAT1 (h), sequence (P50613 whole entry): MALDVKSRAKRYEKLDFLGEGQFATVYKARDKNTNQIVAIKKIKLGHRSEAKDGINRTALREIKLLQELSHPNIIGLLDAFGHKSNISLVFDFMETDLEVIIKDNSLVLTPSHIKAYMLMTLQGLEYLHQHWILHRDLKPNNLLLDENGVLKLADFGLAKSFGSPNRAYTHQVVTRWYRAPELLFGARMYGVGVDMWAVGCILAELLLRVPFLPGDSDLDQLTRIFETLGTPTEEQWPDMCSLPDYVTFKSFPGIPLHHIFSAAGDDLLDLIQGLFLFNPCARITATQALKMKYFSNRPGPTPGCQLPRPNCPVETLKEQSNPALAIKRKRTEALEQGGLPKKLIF
CDK7/cyclinH/MAT1 (h), sequence (P51946 whole entry partner): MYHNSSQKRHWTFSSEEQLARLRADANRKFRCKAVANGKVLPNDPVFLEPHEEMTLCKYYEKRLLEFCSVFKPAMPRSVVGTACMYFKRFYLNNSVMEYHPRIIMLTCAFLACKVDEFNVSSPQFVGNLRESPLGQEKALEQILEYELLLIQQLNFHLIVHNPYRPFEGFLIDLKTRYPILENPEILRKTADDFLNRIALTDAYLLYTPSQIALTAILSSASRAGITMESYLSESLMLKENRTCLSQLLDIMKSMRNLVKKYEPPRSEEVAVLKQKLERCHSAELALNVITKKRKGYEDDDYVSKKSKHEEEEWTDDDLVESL
CDK7/cyclinH/MAT1 (h), sequence (P51948 whole entry partner): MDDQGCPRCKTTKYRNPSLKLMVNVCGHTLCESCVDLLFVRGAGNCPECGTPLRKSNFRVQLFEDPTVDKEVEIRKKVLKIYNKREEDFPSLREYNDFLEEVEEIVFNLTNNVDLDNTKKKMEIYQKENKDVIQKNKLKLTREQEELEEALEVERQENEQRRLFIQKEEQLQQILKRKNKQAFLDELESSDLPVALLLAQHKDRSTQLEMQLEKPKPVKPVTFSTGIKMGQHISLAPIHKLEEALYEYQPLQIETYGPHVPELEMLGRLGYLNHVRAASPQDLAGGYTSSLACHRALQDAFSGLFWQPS
CDK1/cyclinB (h), sequence (P06493 whole entry): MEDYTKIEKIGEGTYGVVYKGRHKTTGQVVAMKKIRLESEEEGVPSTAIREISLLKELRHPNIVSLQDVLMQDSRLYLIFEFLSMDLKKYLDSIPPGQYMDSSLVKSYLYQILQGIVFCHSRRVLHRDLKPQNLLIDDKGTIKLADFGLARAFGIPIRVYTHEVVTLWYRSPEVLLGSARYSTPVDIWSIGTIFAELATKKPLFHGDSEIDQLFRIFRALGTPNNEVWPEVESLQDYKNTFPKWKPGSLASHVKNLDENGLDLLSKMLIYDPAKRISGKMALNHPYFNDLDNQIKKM
CDK1/cyclinB (h), sequence (P14635 whole entry partner): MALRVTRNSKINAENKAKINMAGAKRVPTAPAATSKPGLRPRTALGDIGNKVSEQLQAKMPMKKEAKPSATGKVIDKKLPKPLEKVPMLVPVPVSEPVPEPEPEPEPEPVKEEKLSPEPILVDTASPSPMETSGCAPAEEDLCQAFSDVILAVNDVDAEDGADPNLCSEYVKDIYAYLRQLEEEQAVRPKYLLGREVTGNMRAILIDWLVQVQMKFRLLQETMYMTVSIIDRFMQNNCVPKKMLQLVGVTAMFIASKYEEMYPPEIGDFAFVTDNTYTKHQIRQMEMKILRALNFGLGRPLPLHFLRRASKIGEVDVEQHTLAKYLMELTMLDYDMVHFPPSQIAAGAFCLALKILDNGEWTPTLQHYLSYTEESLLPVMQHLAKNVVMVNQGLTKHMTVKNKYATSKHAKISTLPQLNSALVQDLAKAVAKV
CDK5/p35 human, sequence (Q00535 whole entry): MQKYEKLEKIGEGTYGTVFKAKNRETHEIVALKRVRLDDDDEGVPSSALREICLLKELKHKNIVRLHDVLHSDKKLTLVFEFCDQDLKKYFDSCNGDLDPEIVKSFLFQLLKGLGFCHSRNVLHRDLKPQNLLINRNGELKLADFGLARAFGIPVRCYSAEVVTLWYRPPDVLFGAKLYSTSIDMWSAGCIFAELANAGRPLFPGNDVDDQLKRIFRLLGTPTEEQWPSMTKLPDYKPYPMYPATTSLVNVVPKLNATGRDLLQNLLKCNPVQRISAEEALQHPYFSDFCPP
CDK5/p35 human, sequence (Q15078 whole entry partner): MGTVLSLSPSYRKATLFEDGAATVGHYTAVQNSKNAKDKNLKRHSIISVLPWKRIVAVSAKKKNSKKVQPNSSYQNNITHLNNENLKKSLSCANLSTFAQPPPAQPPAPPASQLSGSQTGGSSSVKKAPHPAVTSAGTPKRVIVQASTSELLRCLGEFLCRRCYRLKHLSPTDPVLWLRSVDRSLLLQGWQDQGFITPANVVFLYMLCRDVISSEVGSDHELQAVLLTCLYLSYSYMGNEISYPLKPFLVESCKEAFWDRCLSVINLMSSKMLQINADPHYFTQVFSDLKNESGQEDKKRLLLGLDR
CDK6/cyclinD3 human, sequence (Q00534 whole entry): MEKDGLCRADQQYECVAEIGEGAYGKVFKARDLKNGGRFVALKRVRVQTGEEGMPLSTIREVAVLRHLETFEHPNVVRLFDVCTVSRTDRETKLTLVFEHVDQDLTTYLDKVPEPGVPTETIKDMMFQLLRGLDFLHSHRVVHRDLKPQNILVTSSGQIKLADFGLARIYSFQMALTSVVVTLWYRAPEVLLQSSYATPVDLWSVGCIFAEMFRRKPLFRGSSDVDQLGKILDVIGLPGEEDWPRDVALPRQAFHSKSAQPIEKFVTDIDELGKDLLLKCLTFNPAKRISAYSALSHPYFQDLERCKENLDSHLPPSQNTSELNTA
CDK6/cyclinD3 human, sequence (P30281 whole entry partner): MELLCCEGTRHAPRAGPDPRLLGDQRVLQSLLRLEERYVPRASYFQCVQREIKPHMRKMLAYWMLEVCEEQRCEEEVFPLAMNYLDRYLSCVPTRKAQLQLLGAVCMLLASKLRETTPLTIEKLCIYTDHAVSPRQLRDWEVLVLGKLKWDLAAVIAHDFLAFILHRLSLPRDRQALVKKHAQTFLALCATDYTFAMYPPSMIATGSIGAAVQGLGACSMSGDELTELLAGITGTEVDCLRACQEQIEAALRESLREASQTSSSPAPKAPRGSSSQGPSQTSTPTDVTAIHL
GSK-3α, sequence (P49840 whole entry, species assumed): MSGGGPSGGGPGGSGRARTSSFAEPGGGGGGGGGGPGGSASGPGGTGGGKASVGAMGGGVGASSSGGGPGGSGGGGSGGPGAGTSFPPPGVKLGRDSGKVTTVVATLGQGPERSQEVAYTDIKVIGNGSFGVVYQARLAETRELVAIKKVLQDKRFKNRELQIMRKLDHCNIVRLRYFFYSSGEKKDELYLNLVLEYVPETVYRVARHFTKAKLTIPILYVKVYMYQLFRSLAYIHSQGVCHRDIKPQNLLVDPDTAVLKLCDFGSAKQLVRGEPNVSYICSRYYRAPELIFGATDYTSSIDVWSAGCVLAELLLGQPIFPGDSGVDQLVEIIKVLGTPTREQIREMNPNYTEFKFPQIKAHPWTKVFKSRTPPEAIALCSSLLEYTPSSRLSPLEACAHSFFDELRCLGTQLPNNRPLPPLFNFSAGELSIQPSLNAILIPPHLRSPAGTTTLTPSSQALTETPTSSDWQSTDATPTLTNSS
GSK-3β, sequence (P49841 whole entry, species assumed): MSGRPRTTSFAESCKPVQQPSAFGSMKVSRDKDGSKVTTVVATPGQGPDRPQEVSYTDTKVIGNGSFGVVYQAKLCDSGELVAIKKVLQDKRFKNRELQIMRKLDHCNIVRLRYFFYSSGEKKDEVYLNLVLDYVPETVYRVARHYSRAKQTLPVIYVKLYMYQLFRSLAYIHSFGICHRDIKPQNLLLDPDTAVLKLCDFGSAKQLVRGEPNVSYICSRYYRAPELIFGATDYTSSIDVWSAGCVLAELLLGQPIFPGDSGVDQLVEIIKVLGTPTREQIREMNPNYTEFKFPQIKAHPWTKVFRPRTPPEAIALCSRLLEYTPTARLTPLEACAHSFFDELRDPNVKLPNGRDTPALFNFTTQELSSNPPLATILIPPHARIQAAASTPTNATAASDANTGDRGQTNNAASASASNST

Row | SMILES | IC50 [1] [nM] | C3.6 score [2] | C3.5 score [3] | C3.3 score [4] | C3.8 score [5] | C3.4 score [6] | C3.7 score [7] | C3.2 score [8] | IC50 [9] [nM] | C1 Score β [1]
1 | O=C1NCCNc2cc(ccn2)-c2ncnc(n2)Nc2cccc(c2)CN2CCC[C@H]12 [Compound 18] | 100 to 1000 | 2 (Score 2 = 30-60% inhibition) | 3 (Score 3 = 60-80% inhibition) | 4 (Score 4 = >80% inhibition) | 2 (Score 2 = 30-60% inhibition) | 4 (Score 4 = >80% inhibition) | 1 (Score 1 = 10-30% inhibition) | 3 (Score 3 = 60-80% inhibition) | 100 to 1000 | 
2 | O=C1NCCCNc2cc(ccn2)-c2ncnc(n2)Nc2cccc(c2)CN2CCC[C@@H]12 [Compound 21] | 100 to 1000 | 3 (Score 3 = 60-80% inhibition) | 4 (Score 4 = >80% inhibition) | 4 (Score 4 = >80% inhibition) | 2 (Score 2 = 30-60% inhibition) | 4 (Score 4 = >80% inhibition) | 1 (Score 1 = 10-30% inhibition) | 4 (Score 4 = >80% inhibition) | 100 to 1000 | 
3 | O=C1NCCCc2cc(ccn2)-c2ncnc(n2)Nc2cc(Cl)cc(c2)CN2CCC[C@@H]12 [Compound 38] | 100 to 1000 | 2 (Score 2 = 30-60% inhibition) | 3 (Score 3 = 60-80% inhibition) | 4 (Score 4 = >80% inhibition) | 3 (Score 3 = 60-80% inhibition) | 4 (Score 4 = >80% inhibition) |  | 4 (Score 4 = >80% inhibition) | 100 to 1000 | 
4 | O=C1NCCCc2cc(ccn2)-c2ncnc(n2)Nc2cc(Cl)cc(c2)CN2CCCC1C2 (centres unmarked) [Compound 39] | 10 to 100 | 1 (Score 1 = 10-30% inhibition) | 2 (Score 2 = 30-60% inhibition) | 3 (Score 3 = 60-80% inhibition) | 3 (Score 3 = 60-80% inhibition) | 3 (Score 3 = 60-80% inhibition) |  | 2 (Score 2 = 30-60% inhibition) | 100 to 1000 | 
5 | O=C1CN2CCN(CC2)Cc2cccc(c2)Nc2ncnc(n2)-c2cccc(c2)NCCN1 [Compound 58] |  | 2 (Score 2 = 30-60% inhibition) | 1 (Score 1 = 10-30% inhibition) | 3 (Score 3 = 60-80% inhibition) |  | 2 (Score 2 = 30-60% inhibition) | 1 (Score 1 = 10-30% inhibition) | 2 (Score 2 = 30-60% inhibition) | 10 to 100 | 

The remaining lines, values ahead:

Row | IC50 [1] [nM] | C3.6 score [2] | C3.5 score [3] | C3.3 score [4] | C3.8 score [5] | C3.4 score [6] | C3.7 score [7] | C3.2 score [8] | IC50 [9] [nM] | C1 Score β [1] | SMILES
6 | 10 to 100 | 4 (Score 4 = >80% inhibition) | 4 (Score 4 = >80% inhibition) | 4 (Score 4 = >80% inhibition) | 3 (Score 3 = 60-80% inhibition) | 4 (Score 4 = >80% inhibition) | 2 (Score 2 = 30-60% inhibition) | 4 (Score 4 = >80% inhibition) | 10 to 100 |  | CN1CCC(=O)NCCNc2cc(ccn2)-c2ncnc(n2)Nc2cccc(c2)C1 [Compound 17]
7 | 10 to 100 | 3 (Score 3 = 60-80% inhibition) | 4 (Score 4 = >80% inhibition) | 4 (Score 4 = >80% inhibition) | 2 (Score 2 = 30-60% inhibition) | 4 (Score 4 = >80% inhibition) | 2 (Score 2 = 30-60% inhibition) | 4 (Score 4 = >80% inhibition) | 100 to 1000 |  | O=C1CCN2CCN(CC2)Cc2cccc(c2)Nc2ncnc(n2)-c2ccnc(c2)NCCN1 [Compound 19]
8 |  | 3 (Score 3 = 60-80% inhibition) | 4 (Score 4 = >80% inhibition) | 4 (Score 4 = >80% inhibition) | 2 (Score 2 = 30-60% inhibition) | 4 (Score 4 = >80% inhibition) | 1 (Score 1 = 10-30% inhibition) | 3 (Score 3 = 60-80% inhibition) | 100 to 1000 | 3 (Score 3=pIC50 value from 7-8) | CN1CCC(=O)NCCNc2cc(ccn2)-c2ncnc(n2)Nc2cccc(c2)C1 [Compound 20]
9 | 100 to 1000 | 2 (Score 2 = 30-60% inhibition) | 4 (Score 4 = >80% inhibition) | 4 (Score 4 = >80% inhibition) | 1 (Score 1 = 10-30% inhibition) | 4 (Score 4 = >80% inhibition) | 1 (Score 1 = 10-30% inhibition) | 4 (Score 4 = >80% inhibition) | 100 to 1000 |  | O=C1CCN2CCN(CC2)Cc2cccc(c2)Nc2ncnc(n2)-c2ccnc(c2)NCCCN1 [Compound 22]
